According to patent US8574563B2 (Bristol-Myers Squibb Company, priority 2006, dated 2013):

System: HCV 1b-377-neo replicon cells
Test: HCV replicon assay, HCV 1b-377-neo replicon cells (1b FRET)
Type: cell-based, Hepatitis C virus genotype 1b
Conditions: Hepatitis C virus, HCV 1b-377-neo replicon cells; HCV 1b genotype; read-out: EC50 range against HCV 1b (Table 2, Range)
Summary of the method: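 FRET-based replicon assay in HCV 1b-377-neo cells, including a comparison line carrying the NS5A Y2065H mutation that confers resistance to a reference compound.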

SMILES | EC50 [nM]
CC(=O)OC(C(=O)N1CCC[C@H]1c1ncc(-c2ccc(-c3ccc(-c4cnc([C@@H]5CCCN5C(=O)[C@@H](c5ccccc5)N5CCCCC5)[nH]4)cc3)cc2)[nH]1)c1ccccc1 (stereo in doubt) [Example 107-21, (1R)-2-oxo-1-phenyl-2-((2S)-2-(5-(4′-(2-((2S)-1-((2R)-2-phenyl-2-(1-piperidinyl)acetyl)-2-pyrrolidinyl)-1H-imidazol-5-yl)-4-biphenylyl)-1H-imidazol-2-yl)-1-pyrrolidinyl)ethyl acetate] | 0.001 to 0.999
COC(=O)N[C@H](C(=O)N1C[C@H](F)C[C@H]1c1ncc(-c2ccc(-c3ccc(-c4cnc([C@@H]5C[C@@H](F)CN5C(=O)[C@@H](NC(=O)OC)C(C)C)[nH]4)cc3)cc2)[nH]1)C(C)C [JG-16, methyl ((1S)-1-(((2S,4R)-4-fluoro-2-(5-(4′-(2-((2S,4R)-4-fluoro-1-((2S)-2-((methoxycarbonyl)amino)-3-methylbutanoyl)-2-pyrrolidinyl)-1H-imidazol-5-yl)-4-biphenylyl)-1H-imidazol-2-yl)-1-pyrrolidinyl)carbonyl)-2-methylpropyl)carbamate] | 0.001 to 0.999
COC(=O)N[C@@H](C)C(=O)N1CCC[C@H]1c1ncc(-c2ccc(-c3ccc(-c4cnc([C@@H]5CCCN5C(=O)[C@H](O)c5ccccc5)[nH]4)cc3)cc2)[nH]1 [Example M98, methyl ((1S)-2-((2S)-2-(5-(4′-(2-((2S)-1-((2R)-2-hydroxy-2-phenylacetyl)-2-pyrrolidinyl)-1H-imidazol-5-yl)-4-biphenylyl)-1H-imidazol-2-yl)-1-pyrrolidinyl)-1-methyl-2-oxoethyl)carbamate] | 1 to 99
O=C(C(c1ccccc1)N1CCC(O)CC1)N1CCC[C@H]1c1ncc(-c2ccc(-c3ccc(-c4cnc([C@@H]5CCCN5C(=O)C(c5ccccc5)N5CCC(O)CC5)[nH]4)cc3)cc2)[nH]1 (stereo partly drawn) [Example 24-4h, 1,1′-(4,4′-biphenyldiylbis(1H-imidazole-5,2-diyl(2S)-2,1-pyrrolidinediyl(2-oxo-1-phenyl-2,1-ethanediyl)))di(4-piperidinol)] | 0.001 to 0.999
CCN(CC)[C@@H](C(=O)N1CCC[C@H]1c1ncc(-c2ccc(-c3ccc(-c4cnc([C@@H]5CCCN5C(=O)[C@@H]5CCC(=O)N5)[nH]4)cc3)cc2)[nH]1)c1ccccc1 [Example M32, (5S)-5-(((2S)-2-(5-(4′-(2-((2S)-1-((2R)-2-(diethylamino)-2-phenylacetyl)-2-pyrrolidinyl)-1H-imidazol-5-yl)-4-biphenylyl)-1H-imidazol-2-yl)-1-pyrrolidinyl)carbonyl)-2-pyrrolidinone] | 100 to 999
CCC[C@H](NC(=O)OC)C(=O)N1CCC[C@H]1c1ncc(-c2ccc(-c3ccc(-c4cnc([C@@H]5CCCN5C(=O)[C@@H](c5ccccc5)N(CC)CC)[nH]4)cc3)cc2)[nH]1 [Example M62, methyl ((1S)-1-(((2S)-2-(5-(4′-(2-((2S)-1-((2R)-2-(diethylamino)-2-phenylacetyl)-2-pyrrolidinyl)-1H-imidazol-5-yl)-4-biphenylyl)-1H-imidazol-2-yl)-1-pyrrolidinyl)carbonyl)butyl)carbamate] | 1 to 99
CCCc1[nH]c([C@@H]2CCCN2C(=O)[C@@H](c2ccccc2)N(CC)CC)nc1-c1ccc(-c2ccc(-c3cnc([C@@H]4CCCN4C(=O)[C@@H](c4ccccc4)N(CC)CC)[nH]3)cc2)cc1 [Example J14c.1, (1R)-2-((2S)-2-(4-(4′-(2-((2S)-1-((2R)-2-(diethylamino)-2-phenylacetyl)-2-pyrrolidinyl)-1H-imidazol-4-yl)-4-biphenylyl)-5-propyl-1H-imidazol-2-yl)-1-pyrrolidinyl)-N,N-diethyl-2-oxo-1-phenylethanamine] | 0.001 to 0.999
O=C([C@@H](c1ccccc1)N1CCCCC1)N1CCC[C@H]1c1ncc(-c2ccc(-c3ccc(-c4cnc([C@@H]5CCCN5C(=O)C5(C(F)(F)F)CC5)[nH]4)cc3)cc2)[nH]1 [Example 107-15, 1-((1R)-2-oxo-1-phenyl-2-((2S)-2-(5-(4′-(2-((2S)-1-((1-(trifluoromethyl)cyclopropyl)carbonyl)-2-pyrrolidinyl)-1H-imidazol-5-yl)-4-biphenylyl)-1H-imidazol-2-yl)-1-pyrrolidinyl)ethyl)piperidine] | 0.001 to 0.999
Cc1cc(-c2cnc([C@@H]3CCCN3C(=O)[C@H](O)c3ccccc3)[nH]2)ccc1-c1ccc(-c2cnc([C@@H]3CCCN3C(=O)[C@H](O)c3ccccc3)[nH]2)cc1 [Example 125, (1R,1′R)-2,2′-((2-methyl-4,4′-biphenyldiyl)bis(1H-imidazole-5,2-diyl(2S)-2,1-pyrrolidinediyl))bis(2-oxo-1-phenylethanol)] | 0.001 to 0.999
O=C([C@H](O)c1ccccc1)N1C[C@@H](O)C[C@H]1c1ncc(-c2ccc(-c3ccc(-c4cnc([C@@H]5C[C@H](O)CN5C(=O)[C@H](O)c5ccccc5)[nH]4)cc3)cc2)[nH]1 [Example 24-18, (3S,5S,3′S,5′S)-5,5′-(4,4′-biphenyldiylbis(1H-imidazole-5,2-diyl))bis(1-((2R)-2-hydroxy-2-phenylacetyl)-3-pyrrolidinol)] | 0.001 to 0.999
CCN(CC)[C@@H](C(=O)N1CCC[C@H]1c1ncc(-c2ccc(-c3ccc(-c4[nH]c([C@@H]5CCCN5C(=O)[C@H](C)NC(=O)OC)nc4C(F)(F)F)cc3)cc2)[nH]1)c1ccccc1 [Example J45, methyl ((1S)-2-((2S)-2-(5-(4′-(2-((2S)-1-((2R)-2-(diethylamino)-2-phenylacetyl)-2-pyrrolidinyl)-1H-imidazol-5-yl)-4-biphenylyl)-4-(trifluoromethyl)-1H-imidazol-2-yl)-1-pyrrolidinyl)-1-methyl-2-oxoethyl)carbamate] | 0.001 to 0.999
CN(C)[C@@H](C(=O)N1CCC[C@H]1c1ncc(-c2ccc(-c3ccc(-c4[nH]c([C@@H]5CCCN5C(=O)[C@@H](c5ccccc5)N(C)C)nc4C(=O)OCc4ccccc4)cc3)cc2)[nH]1)c1ccccc1 [Example J22, benzyl 2-((2S)-1-((2R)-2-(dimethylamino)-2-phenylacetyl)-2-pyrrolidinyl)-5-(4′-(2-((2S)-1-((2R)-2-(dimethylamino)-2-phenylacetyl)-2-pyrrolidinyl)-1H-imidazol-5-yl)-4-biphenylyl)-1H-imidazole-4-carboxylate] | 0.001 to 0.999
CC(C)[C@H](NS(C)(=O)=O)C(=O)N1CCC[C@H]1c1nc(-c2ccc(-c3ccc(-c4c[nH]c([C@@H]5CCCN5C(=O)[C@@H](NS(C)(=O)=O)C(C)C)n4)cc3)cc2)c[nH]1 [Example F66, N-((1S)-2-methyl-1-(((2S)-2-(4-(4′-(2-((2S)-1-((2S)-3-methyl-2-((methylsulfonyl)amino)butanoyl)-2-pyrrolidinyl)-1H-imidazol-4-yl)-4-biphenylyl)-1H-imidazol-2-yl)-1-pyrrolidinyl)carbonyl)propyl)methanesulfonamide] | 1 to 99
COC(=O)N[C@@H](C(=O)N1CCC[C@H]1c1ncc(-c2ccc(-c3ccc(-c4cnc([C@@H]5CCCN5C(=O)Cc5ccccc5CN(C)C)[nH]4)cc3)cc2)[nH]1)c1ccccc1 [Example 84-87, methyl ((1R)-2-((2S)-2-(5-(4′-(2-((2S)-1-((2-((dimethylamino)methyl)phenyl)acetyl)-2-pyrrolidinyl)-1H-imidazol-5-yl)-4-biphenylyl)-1H-imidazol-2-yl)-1-pyrrolidinyl)-2-oxo-1-phenylethyl)carbamate] | 0.001 to 0.999
COC(=O)N[C@@H](C(=O)N1CCC[C@H]1c1ncc(-c2ccc(-c3ccc(-c4cnc([C@@H]5CCCN5C(=O)C(c5cccc(C(F)(F)F)c5)N(C)C)[nH]4)cc3)cc2)[nH]1)c1ccccc1 (stereo partly drawn) [Example 84-54, methyl ((1R)-2-((2S)-2-(5-(4′-(2-((2S)-1-((dimethylamino)(3-(trifluoromethyl)phenyl)acetyl)-2-pyrrolidinyl)-1H-imidazol-5-yl)-4-biphenylyl)-1H-imidazol-2-yl)-1-pyrrolidinyl)-2-oxo-1-phenylethyl)carbamate] | 0.001 to 0.999
CCCc1[nH]c([C@@H]2CCCN2C(=O)[C@@H](NC(=O)OC)C(C)C)nc1-c1ccc(-c2ccc(-c3cnc([C@@H]4CCCN4C(=O)[C@@H](NC(=O)OC)C(C)C)[nH]3)cc2)cc1 [Example J14c.2, methyl ((1S)-1-(((2S)-2-(4-(4′-(2-((2S)-1-((2S)-2-((methoxycarbonyl)amino)-3-methylbutanoyl)-2-pyrrolidinyl)-1H-imidazol-4-yl)-4-biphenylyl)-5-propyl-1H-imidazol-2-yl)-1-pyrrolidinyl)carbonyl)-2-methylpropyl)carbamate] | 0.001 to 0.999
COC(=O)N[C@@H](C)C(=O)N1CCC[C@H]1c1ncc(-c2ccc(-c3ccc(-c4cnc([C@@H]5CCCN5C(=O)[C@H](Cc5ccc(OCc6ccccc6)cc5)NC(=O)OC)[nH]4)cc3)cc2)[nH]1 [cj-107, methyl ((1S)-1-(4-(benzyloxy)benzyl)-2-((2S)-2-(5-(4′-(2-((2S)-1-(N-(methoxycarbonyl)-L-alanyl)-2-pyrrolidinyl)-1H-imidazol-5-yl)-4-biphenylyl)-1H-imidazol-2-yl)-1-pyrrolidinyl)-2-oxoethyl)carbamate] | 0.001 to 0.999
CC[C@H](NC(=O)OC)C(=O)N1[C@@H](C)CC[C@H]1c1nc(-c2ccc(-c3ccc(-c4c[nH]c([C@@H]5CC[C@H](C)N5C(=O)[C@H](CC)NC(=O)OC)n4)cc3)cc2)c[nH]1 [Example M154, dimethyl (4,4′-biphenyldiylbis(1H-imidazole-4,2-diyl((2S,5S)-5-methyl-2,1-pyrrolidinediyl)((2S)-1-oxo-1,2-butanediyl)))biscarbamate] | 0.001 to 0.999
COC(=O)N[C@@H](C)C(=O)N1CCC[C@H]1c1ncc(-c2ccc(-c3ccc(-c4cnc([C@@H]5CCCN5C(=O)[C@H](Cc5c[nH]c6ccccc56)NC(=O)OC)[nH]4)cc3)cc2)[nH]1 [cj-102, methyl ((1S)-2-((2S)-2-(5-(4′-(2-((2S)-1-((2S)-3-(1H-indol-3-yl)-2-((methoxycarbonyl)amino)propanoyl)-2-pyrrolidinyl)-1H-imidazol-5-yl)-4-biphenylyl)-1H-imidazol-2-yl)-1-pyrrolidinyl)-1-methyl-2-oxoethyl)carbamate] | 0.001 to 0.999
